Assay results taken from publication PMC1851987, “Identification of the Endogenous Key Substrates of the Human Organic Cation Transporter OCT2 and Their Implication in Function of Dopaminergic Neurons” (PLoS ONE, 2007).

What was measured:
[1] = tested on: OCT2-transfected HEK-293 cells; test: Intracellular metabolite N-methyl-salsolinol after salsolinol incubation, OCT2-transfected HEK-293 cells; assay type: in vitro ADME, human; conditions: mean±s.e.m., n = 3
Experimental: Chromatographic separations were performed on Hypercarb (5 µm, 50×2.1 mm; Thermo Electron), Aquasil C18 (3 µm, 100×4.6 mm; Thermo Electron), or Hilic columns (5 µm, 100×3.0 mm; Waters Atlantis) by isocratic or gradient elution using 0.1% aqueous formic acid (A) and acetonitrile or methanol (B) as solvent system. For quantification, SRM transitions of a precursor ion [M+H]^+ into a specific fragment ion (peak area ratios relative to IS) were recorded in positive ESI mode at 1.0–1.5 mTorr collision pressure and 10–40 eV collision energy. External calibration curves were obtained from serial dilutions of the analyte in 4 mmol/l HClO4 by linear or logistic regression. Detection limit was at least 0.001 nmol/mg protein.

SH-SY5Y cells = test: Intracellular metabolite N-methyl-salsolinol after salsolinol incubation, SH-SY5Y cells; assay type: in vitro ADME, human; conditions: mean±s.e.m., n = 3
Source text: (§1) Beyond its physiological neuromodulatory function, there is considerable interest in the pathophysiologic role of salsolinol. […] It has been hypothesized that especially N-methyl-salsolinol is etiologically involved in apoptotic nigral cell death in PD by promoting calcium-triggered disruption of mitochondrial permeability transition.[14]

HTZ-146 cells = test: Intracellular metabolite N-methyl-salsolinol after salsolinol incubation, HTZ-146 cells; assay type: in vitro ADME, human; conditions: mean±s.e.m., n = 3
Source text: as §1

[2] = biological target: T1, organic cation transporter OCT2 (wild-type 400R) (Homo sapiens, UniProt O15244, S270A); test: Specific uptake into OCT2 (wild-type) transfected HEK-293 cells vs empty vector, LC-MS-MS; conditions: 5 min of incubation with 10 µmol/l
T1 sequence (O15244 1-555 S270A): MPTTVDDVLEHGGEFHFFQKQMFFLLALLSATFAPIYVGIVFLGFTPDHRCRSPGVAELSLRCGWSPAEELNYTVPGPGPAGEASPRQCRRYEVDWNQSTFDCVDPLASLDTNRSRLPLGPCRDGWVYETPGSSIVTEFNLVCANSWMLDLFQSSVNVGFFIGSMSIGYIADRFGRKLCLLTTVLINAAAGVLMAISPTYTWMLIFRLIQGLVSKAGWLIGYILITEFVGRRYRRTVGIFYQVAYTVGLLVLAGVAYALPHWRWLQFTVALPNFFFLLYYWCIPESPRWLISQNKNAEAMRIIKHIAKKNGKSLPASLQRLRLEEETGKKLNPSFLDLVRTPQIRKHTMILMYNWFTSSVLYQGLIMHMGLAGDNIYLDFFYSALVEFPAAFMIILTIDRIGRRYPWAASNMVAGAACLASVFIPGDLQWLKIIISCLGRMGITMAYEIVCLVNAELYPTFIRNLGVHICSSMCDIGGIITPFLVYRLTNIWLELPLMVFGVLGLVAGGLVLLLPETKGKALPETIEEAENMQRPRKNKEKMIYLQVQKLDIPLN

[3] = biological target: T1, organic cation transporter OCT2 (wild-type 400R); conditions: cited from earlier work
[4] = substrate: O=C1NC(Cc2c[nH]cn2)C(=O)N2CCCC12; test: Specific uptake into OCT1-transfected HEK-293 cells; assay type: cell-based, human; conditions: other: specific uptake, 1 min of loading, mean (s.e.m.); pH 7.4; 37.0 °C
[5] = substrate: O=C1NC(Cc2c[nH]cn2)C(=O)N2CCCC12; test: Specific uptake into EMT-transfected HEK-293 cells; assay type: cell-based, human; conditions: other: specific uptake, 1 min of loading, mean (s.e.m.); pH 7.4; 37.0 °C
[6] = 48 h incubation with 10 µmol/l salsolinol
[7] = 48 h incubation with 100 µmol/l salsolinol

## CC1c2cc(O)c(O)cc2CCN1C (stereo not shown) [N-methyl-salsolinol]
[1]; [6]
  intracellular concentration of the metabolite N-methyl-salsolinol: 0.89±0.06 nmol/mg protein
[1]; [7]
  intracellular concentration of the metabolite N-methyl-salsolinol: 7.56±0.41 nmol/mg protein
SH-SY5Y cells; [6]
  intracellular concentration of the metabolite N-methyl-salsolinol: 0.18±0.01 nmol/mg protein
SH-SY5Y cells; [7]
  intracellular concentration of the metabolite N-methyl-salsolinol: 1.28±0.11 nmol/mg protein
HTZ-146 cells; [6]
  intracellular concentration of the metabolite N-methyl-salsolinol: 0.17±0.01 nmol/mg protein
HTZ-146 cells; [7]
  intracellular concentration of the metabolite N-methyl-salsolinol: 1.16±0.06 nmol/mg protein
[2]
  uptake rate relative to salsolinol: about two-thirds

## NCCc1ccc(O)c(O)c1 [dopamine]
[3]
  OCT2-mediated transport: no significant OCT2-mediated transport

B1: OCT1 (Homo sapiens) (protein)
chain: MPTVDDILEQVGESGWFQKQAFLILCLLSAAFAPICVGIVFLGFTPDHHCQSPGVAELSQRCGWSPAEELNYTVPGLGPAGEAFLGQCRRYEVDWNQSALSCVDPLASLATNRSHLPLGPCQDGWVYDTPGSSIVTEFNLVCADSWKLDLFQSCLNAGFLFGSLGVGYFADRFGRKLCLLGTVLVNAVSGVLMAFSPNYMSMLLFRLLQGLVSKGNWMAGYTLITEFVGSGSRRTVAIMYQMAFTVGLVALTGLAYALPHWRWLQLAVSLPTFLFLLYYWCVPESPRWLLSQKRNTEAIKIMDHIAQKNGKLPPADLKMLSLEEDVTEKLSPSFADLFRTPRLRKRTFILMYLWFTDSVLYQGLILHMGATSGNLYLDFLYSALVEIPGAFIALITIDRVGRIYPMAMSNLLAGAACLVMIFISPDLHWLNIIIMCVGRMGITIAIQMICLVNAELYPTFVRNLGVMVCSSLCDIGGIITPFIVFRLREVWQALPLILFAVLGLLAAGVTLLLPETKGVALPETMKDAENLGRKAKPKENTIYLKVQTSEPSGT
notes: The cDNAs encoding the organic cation transporters; expressed in transfected cells; host or cells: HEK-293, stably transfected, pcDNA3
[4]
  Km: 655 (191) μmol/l

B2: EMT (Homo sapiens) (protein)
chain: MPSFDEALQRVGEFGRFQRRVFLLLCLTGVTFAFLFVGVVFLGTQPDHYWCRGPSAAALAERCGWSPEEEWNRTAPASRGPEPPERRGRCQRYLLEAANDSASATSALSCADPLAAFPNRSAPLVPCRGGWRYAQAHSTIVSEFDLVCVNAWMLDLTQAILNLGFLTGAFTLGYAADRYGRIVIYLLSCLGVGVTGVVVAFAPNFPVFVIFRFLQGVFGKGTWMTCYVIVTEIVGSKQRRIVGIVIQMFFTLGIIILPGIAYFIPNWQGIQLAITLPSFLFLLYYWVVPESPRWLITRKKGDKALQILRRIAKCNGKYLSSNYSEITVTDEEVSNPSFLDLVRTPQMRKCTLILMFAWFTSAVVYQGLVMRLGIIGGNLYIDFFISGVVELPGALLILLTIERLGRRLPFAASNIVAGVACLVTAFLPEGIAWLRTTVATLGRLGITMAFEIVYLVNSELYPTTLRNFGVSLCSGLCDFGGIIAPFLLFRLAAVWLELPLIIFGILASICGGLVMLLPETKGIALPETVDDVEKLGSPHSCKCGRNKKTPVSRSHL
notes: as for B1
[5]
  Km: 126 (38) μmol/l
